Oligonucleotides are given in HELM: sugar(base)linkage, 5' to 3'; d 2'-deoxyribose, r ribose, m 2'-O-methylribose, p phosphate. ss, as = sense and antisense strand
The substances below were run against UBE2K (assay: reporter assay of Huesken 2005). Conditions: siRNA.
“RNA1{r(C)p.r(A)p.r(C)p.r(C)p.r(A)p.r(U)p.r(A)p.r(U)p.r(G)p.r(A)p.r(A)p.r(G)p.r(G)p.r(A)p.r(G)p.r(G)p.r(A)p.r(A)p.r(G)p.d(T)p.d(T)}|RNA2{r(C)p.r(U)p.r(U)p.r(C)p.r(C)p.r(U)p.r(C)p.r(C)p.r(U)p.r(U)p.r(C)p.r(A)p.r(U)p.r(A)p.r(U)p.r(G)p.r(G)p.r(U)p.r(G)p.d(T)p.d(G)}$$$RNA1{StrandType:ss}|RNA2{StrandType:as}$” showed a normalised inhibition (eCFP-eYFP dual reporter) of 69.5%.
Substance “RNA1{r(C)p.r(A)p.r(G)p.r(A)p.r(C)p.r(A)p.r(C)p.r(A)p.r(C)p.r(C)p.r(A)p.r(U)p.r(A)p.r(U)p.r(G)p.r(A)p.r(A)p.r(G)p.r(G)p.d(T)p.d(T)}|RNA2{r(C)p.r(C)p.r(U)p.r(U)p.r(C)p.r(A)p.r(U)p.r(A)p.r(U)p.r(G)p.r(G)p.r(U)p.r(G)p.r(U)p.r(G)p.r(U)p.r(C)p.r(U)p.r(G)p.d(G)p.d(A)}$$$RNA1{StrandType:ss}|RNA2{StrandType:as}$” has a normalised inhibition (eCFP-eYFP dual reporter) of 72.8%.
Work on “RNA1{r(C)p.r(A)p.r(G)p.r(A)p.r(G)p.r(C)p.r(C)p.r(A)p.r(G)p.r(A)p.r(U)p.r(G)p.r(A)p.r(U)p.r(C)p.r(C)p.r(A)p.r(C)p.r(A)p.d(T)p.d(T)}|RNA2{r(U)p.r(G)p.r(U)p.r(G)p.r(G)p.r(A)p.r(U)p.r(C)p.r(A)p.r(U)p.r(C)p.r(U)p.r(G)p.r(G)p.r(C)p.r(U)p.r(C)p.r(U)p.r(G)p.d(C)p.d(A)}$$$RNA1{StrandType:ss}|RNA2{StrandType:as}$” yielded a normalised inhibition (eCFP-eYFP dual reporter) of 82.5%.
For “RNA1{r(C)p.r(A)p.r(G)p.r(G)p.r(A)p.r(U)p.r(G)p.r(C)p.r(U)p.r(G)p.r(U)p.r(A)p.r(G)p.r(U)p.r(A)p.r(G)p.r(C)p.r(A)p.r(A)p.d(T)p.d(T)}|RNA2{r(U)p.r(U)p.r(G)p.r(C)p.r(U)p.r(A)p.r(C)p.r(U)p.r(A)p.r(C)p.r(A)p.r(G)p.r(C)p.r(A)p.r(U)p.r(C)p.r(C)p.r(U)p.r(G)p.d(T)p.d(G)}$$$RNA1{StrandType:ss}|RNA2{StrandType:as}$”, the normalised inhibition (eCFP-eYFP dual reporter) was 93%.
With “RNA1{r(C)p.r(A)p.r(G)p.r(U)p.r(A)p.r(C)p.r(A)p.r(A)p.r(A)p.r(C)p.r(A)p.r(A)p.r(A)p.r(A)p.r(U)p.r(C)p.r(C)p.r(C)p.r(G)p.d(T)p.d(T)}|RNA2{r(C)p.r(G)p.r(G)p.r(G)p.r(A)p.r(U)p.r(U)p.r(U)p.r(U)p.r(G)p.r(U)p.r(U)p.r(U)p.r(G)p.r(U)p.r(A)p.r(C)p.r(U)p.r(G)p.d(A)p.d(T)}$$$RNA1{StrandType:ss}|RNA2{StrandType:as}$” the normalised inhibition (eCFP-eYFP dual reporter) was 70.1%.
“RNA1{r(C)p.r(C)p.r(A)p.r(G)p.r(A)p.r(A)p.r(A)p.r(C)p.r(A)p.r(U)p.r(A)p.r(C)p.r(C)p.r(C)p.r(A)p.r(U)p.r(U)p.r(U)p.r(A)p.d(T)p.d(T)}|RNA2{r(U)p.r(A)p.r(A)p.r(A)p.r(U)p.r(G)p.r(G)p.r(G)p.r(U)p.r(A)p.r(U)p.r(G)p.r(U)p.r(U)p.r(U)p.r(C)p.r(U)p.r(G)p.r(G)p.d(T)p.d(A)}$$$RNA1{StrandType:ss}|RNA2{StrandType:as}$” was tested, and the normalised inhibition (eCFP-eYFP dual reporter) was 72.4%.
With “RNA1{r(C)p.r(C)p.r(A)p.r(G)p.r(A)p.r(U)p.r(G)p.r(A)p.r(U)p.r(C)p.r(C)p.r(A)p.r(C)p.r(A)p.r(G)p.r(G)p.r(A)p.r(U)p.r(G)p.d(T)p.d(T)}|RNA2{r(C)p.r(A)p.r(U)p.r(C)p.r(C)p.r(U)p.r(G)p.r(U)p.r(G)p.r(G)p.r(A)p.r(U)p.r(C)p.r(A)p.r(U)p.r(C)p.r(U)p.r(G)p.r(G)p.d(C)p.d(T)}$$$RNA1{StrandType:ss}|RNA2{StrandType:as}$” the normalised inhibition (eCFP-eYFP dual reporter) was 66.7%.
“RNA1{r(C)p.r(C)p.r(C)p.r(G)p.r(A)p.r(A)p.r(A)p.r(U)p.r(G)p.r(U)p.r(U)p.r(C)p.r(A)p.r(A)p.r(A)p.r(C)p.r(A)p.r(G)p.r(A)p.d(T)p.d(T)}|RNA2{r(U)p.r(C)p.r(U)p.r(G)p.r(U)p.r(U)p.r(U)p.r(G)p.r(A)p.r(A)p.r(C)p.r(A)p.r(U)p.r(U)p.r(U)p.r(C)p.r(G)p.r(G)p.r(G)p.d(A)p.d(T)}$$$RNA1{StrandType:ss}|RNA2{StrandType:as}$” gave a normalised inhibition (eCFP-eYFP dual reporter) of 92.7%.
“RNA1{r(C)p.r(C)p.r(G)p.r(C)p.r(A)p.r(C)p.r(G)p.r(G)p.r(U)p.r(A)p.r(U)p.r(U)p.r(A)p.r(U)p.r(U)p.r(G)p.r(U)p.r(C)p.r(A)p.d(T)p.d(T)}|RNA2{r(U)p.r(G)p.r(A)p.r(C)p.r(A)p.r(A)p.r(U)p.r(A)p.r(A)p.r(U)p.r(A)p.r(C)p.r(C)p.r(G)p.r(U)p.r(G)p.r(C)p.r(G)p.r(G)p.d(A)p.d(G)}$$$RNA1{StrandType:ss}|RNA2{StrandType:as}$” showed a normalised inhibition (eCFP-eYFP dual reporter) of 63.3%.
In the case of “RNA1{r(C)p.r(C)p.r(G)p.r(G)p.r(U)p.r(U)p.r(U)p.r(A)p.r(U)p.r(C)p.r(A)p.r(C)p.r(U)p.r(A)p.r(A)p.r(A)p.r(A)p.r(U)p.r(A)p.d(T)p.d(T)}|RNA2{r(U)p.r(A)p.r(U)p.r(U)p.r(U)p.r(U)p.r(A)p.r(G)p.r(U)p.r(G)p.r(A)p.r(U)p.r(A)p.r(A)p.r(A)p.r(C)p.r(C)p.r(G)p.r(G)p.d(A)p.d(C)}$$$RNA1{StrandType:ss}|RNA2{StrandType:as}$”, the normalised inhibition (eCFP-eYFP dual reporter) is reported as 89.7%.
“RNA1{r(C)p.r(C)p.r(U)p.r(A)p.r(A)p.r(U)p.r(A)p.r(U)p.r(U)p.r(A)p.r(G)p.r(U)p.r(U)p.r(C)p.r(C)p.r(G)p.r(U)p.r(C)p.r(A)p.d(T)p.d(T)}|RNA2{r(U)p.r(G)p.r(A)p.r(C)p.r(G)p.r(G)p.r(A)p.r(A)p.r(C)p.r(U)p.r(A)p.r(A)p.r(U)p.r(A)p.r(U)p.r(U)p.r(A)p.r(G)p.r(G)p.d(A)p.d(T)}$$$RNA1{StrandType:ss}|RNA2{StrandType:as}$” gave a normalised inhibition (eCFP-eYFP dual reporter) of 74.9%.
“RNA1{r(C)p.r(C)p.r(U)p.r(C)p.r(C)p.r(A)p.r(G)p.r(A)p.r(C)p.r(A)p.r(C)p.r(A)p.r(C)p.r(C)p.r(A)p.r(U)p.r(A)p.r(U)p.r(G)p.d(T)p.d(T)}|RNA2{r(C)p.r(A)p.r(U)p.r(A)p.r(U)p.r(G)p.r(G)p.r(U)p.r(G)p.r(U)p.r(G)p.r(U)p.r(C)p.r(U)p.r(G)p.r(G)p.r(A)p.r(G)p.r(G)p.d(T)p.d(C)}$$$RNA1{StrandType:ss}|RNA2{StrandType:as}$” gave a normalised inhibition (eCFP-eYFP dual reporter) of 66.9%.
For “RNA1{r(C)p.r(U)p.r(G)p.r(A)p.r(A)p.r(A)p.r(G)p.r(A)p.r(U)p.r(C)p.r(A)p.r(A)p.r(U)p.r(G)p.r(G)p.r(G)p.r(C)p.r(A)p.r(G)p.d(T)p.d(T)}|RNA2{r(C)p.r(U)p.r(G)p.r(C)p.r(C)p.r(C)p.r(A)p.r(U)p.r(U)p.r(G)p.r(A)p.r(U)p.r(C)p.r(U)p.r(U)p.r(U)p.r(C)p.r(A)p.r(G)p.d(G)p.d(A)}$$$RNA1{StrandType:ss}|RNA2{StrandType:as}$”, the normalised inhibition (eCFP-eYFP dual reporter) was 79.2%.
Substance “RNA1{r(C)p.r(U)p.r(U)p.r(G)p.r(U)p.r(A)p.r(G)p.r(A)p.r(U)p.r(G)p.r(A)p.r(G)p.r(A)p.r(A)p.r(U)p.r(U)p.r(U)p.r(U)p.r(A)p.d(T)p.d(T)}|RNA2{r(U)p.r(A)p.r(A)p.r(A)p.r(A)p.r(U)p.r(U)p.r(C)p.r(U)p.r(C)p.r(A)p.r(U)p.r(C)p.r(U)p.r(A)p.r(C)p.r(A)p.r(A)p.r(G)p.d(A)p.d(T)}$$$RNA1{StrandType:ss}|RNA2{StrandType:as}$” has a normalised inhibition (eCFP-eYFP dual reporter) of 91.3%.
For “RNA1{r(G)p.r(A)p.r(A)p.r(A)p.r(U)p.r(G)p.r(U)p.r(U)p.r(C)p.r(A)p.r(A)p.r(A)p.r(C)p.r(A)p.r(G)p.r(A)p.r(C)p.r(A)p.r(G)p.d(T)p.d(T)}|RNA2{r(C)p.r(U)p.r(G)p.r(U)p.r(C)p.r(U)p.r(G)p.r(U)p.r(U)p.r(U)p.r(G)p.r(A)p.r(A)p.r(C)p.r(A)p.r(U)p.r(U)p.r(U)p.r(C)p.d(G)p.d(G)}$$$RNA1{StrandType:ss}|RNA2{StrandType:as}$”, the normalised inhibition (eCFP-eYFP dual reporter) was 76.6%.
For “RNA1{r(G)p.r(A)p.r(A)p.r(U)p.r(U)p.r(A)p.r(A)p.r(G)p.r(A)p.r(G)p.r(G)p.r(A)p.r(G)p.r(A)p.r(A)p.r(A)p.r(U)p.r(A)p.r(G)p.d(T)p.d(T)}|RNA2{r(C)p.r(U)p.r(A)p.r(U)p.r(U)p.r(U)p.r(C)p.r(U)p.r(C)p.r(C)p.r(U)p.r(C)p.r(U)p.r(U)p.r(A)p.r(A)p.r(U)p.r(U)p.r(C)p.d(T)p.d(G)}$$$RNA1{StrandType:ss}|RNA2{StrandType:as}$”, the normalised inhibition (eCFP-eYFP dual reporter) was 74.2%.
Work on “RNA1{r(G)p.r(A)p.r(C)p.r(A)p.r(C)p.r(A)p.r(C)p.r(C)p.r(A)p.r(U)p.r(A)p.r(U)p.r(G)p.r(A)p.r(A)p.r(G)p.r(G)p.r(A)p.r(G)p.d(T)p.d(T)}|RNA2{r(C)p.r(U)p.r(C)p.r(C)p.r(U)p.r(U)p.r(C)p.r(A)p.r(U)p.r(A)p.r(U)p.r(G)p.r(G)p.r(U)p.r(G)p.r(U)p.r(G)p.r(U)p.r(C)p.d(T)p.d(G)}$$$RNA1{StrandType:ss}|RNA2{StrandType:as}$” yielded a normalised inhibition (eCFP-eYFP dual reporter) of 64.2%.
In the case of “RNA1{r(G)p.r(A)p.r(G)p.r(G)p.r(A)p.r(A)p.r(G)p.r(A)p.r(U)p.r(A)p.r(C)p.r(C)p.r(A)p.r(A)p.r(C)p.r(U)p.r(A)p.r(G)p.r(A)p.d(T)p.d(T)}|RNA2{r(U)p.r(C)p.r(U)p.r(A)p.r(G)p.r(U)p.r(U)p.r(G)p.r(G)p.r(U)p.r(A)p.r(U)p.r(C)p.r(U)p.r(U)p.r(C)p.r(C)p.r(U)p.r(C)p.d(C)p.d(T)}$$$RNA1{StrandType:ss}|RNA2{StrandType:as}$”, the normalised inhibition (eCFP-eYFP dual reporter) is reported as 79.3%.
“RNA1{r(G)p.r(A)p.r(G)p.r(G)p.r(A)p.r(G)p.r(A)p.r(A)p.r(A)p.r(U)p.r(A)p.r(G)p.r(C)p.r(A)p.r(G)p.r(G)p.r(A)p.r(C)p.r(C)p.d(T)p.d(T)}|RNA2{r(G)p.r(G)p.r(U)p.r(C)p.r(C)p.r(U)p.r(G)p.r(C)p.r(U)p.r(A)p.r(U)p.r(U)p.r(U)p.r(C)p.r(U)p.r(C)p.r(C)p.r(U)p.r(C)p.d(T)p.d(T)}$$$RNA1{StrandType:ss}|RNA2{StrandType:as}$” gave a normalised inhibition (eCFP-eYFP dual reporter) of 54.8%.
Substance “RNA1{r(G)p.r(A)p.r(U)p.r(C)p.r(C)p.r(A)p.r(C)p.r(A)p.r(G)p.r(G)p.r(A)p.r(U)p.r(G)p.r(C)p.r(U)p.r(G)p.r(U)p.r(A)p.r(G)p.d(T)p.d(T)}|RNA2{r(C)p.r(U)p.r(A)p.r(C)p.r(A)p.r(G)p.r(C)p.r(A)p.r(U)p.r(C)p.r(C)p.r(U)p.r(G)p.r(U)p.r(G)p.r(G)p.r(A)p.r(U)p.r(C)p.d(A)p.d(T)}$$$RNA1{StrandType:ss}|RNA2{StrandType:as}$” has a normalised inhibition (eCFP-eYFP dual reporter) of 67.6%.

Source: the OligoGym collection
Also: test concentration or dose not given here.
